ChEMBL document CHEMBL1240352, “Panel of prototypical raltegravir-resistant infectious molecular clones in a novel integrase-deleted cloning vector” (2010)

Experiments:
Format in all cases: functional
[1] = test system: Human immunodeficiency virus 1; assay: (§1) Antiviral activity against Human immunodeficiency virus 1 clone 4736_2 harboring integrase N155H,T97A and D6E, S17N, R20K, D25E, S39C, L45V,L101I, V201I, S119R, T124A, K160T, K211R, D288N mutation transfected into human C8166 cells assessed as decrease in compound susceptibility relative to wild-type
[2] = test system: Human immunodeficiency virus 1; assay: as §1, with “4736_9” for “4736_2”, “N155H, E92Q H51Y” for “N155H,T97A”, “D41H, L45V, L101I,” for “L45V,L101I, V201I, S119R,”, “V201I,K211R,” for “K211R,”, “in” for “into”
[3] = test system: Human immunodeficiency virus 1; assay: Antiviral activity against Human immunodeficiency virus 1 clone 1556 harboring integrase Y143C, L74M, T97A, S230R, K7R, S17N, R20K, L101I, K111Q, T112K, S119R, T206S, D256E, V259I mutation transfected in human C8166 cells assessed as decrease in compound susceptibility relative to wild-type
[4] = test system: Human immunodeficiency virus 1; assay: (§2) Antiviral activity against Human immunodeficiency virus 1 clone 4736_4 harboring integrase N155H, E92Q and D6E, S17N, R20K, D25E, S39C, L45V, L101I, T124A, K160T, V201I, K211R, D288N mutation transfected in human C8166 cells assessed as decrease in compound susceptibility relative to wild-type
[5] = test system: Human immunodeficiency virus 1; assay: Antiviral activity against Human immunodeficiency virus 1 clone 2253 harboring integrase S17N, V31I, I72V, L101I, T124A, K156N,V201I, I220M, D279G, R284G mutation transfected into human C8166 cells assessed as decrease in compound susceptibility relative to wild-type
[6] = test system: Human immunodeficiency virus 1; assay: Antiviral activity against Human immunodeficiency virus 1 clone 8070_1 harboring integrase G140S, Y143H,Q148H and K14R, L101I, T112A, G193E, D229E, D279G mutation in transfected in human C8166 cells assessed as decrease in compound susceptibility relative to wild-type
[7] = test system: Human immunodeficiency virus 1; assay: as §2, with “4736_10” for “4736_4”, “V151I, G163R” for “E92Q”
[8] = test system: Human immunodeficiency virus 1; assay: Antiviral activity against Human immunodeficiency virus 1 clone 4378 harboring integrase E157Q V31I, V32I, S39C, I72V, L101I, K160Q, F181L, V201I, Q216H, A265V mutation transfected in human C8166 cells assessed as decrease in compound susceptibility relative to wild-type
[9] = test system: Human immunodeficiency virus 1; assay: Antiviral activity against Human immunodeficiency virus 1 clone 1288 harboring integrase M154L and E11D, V31I, L101I, K160R, F181L,V201I, T206S, D256E mutation transfected into human C8166 cells assessed as decrease in compound susceptibility relative to wild-type
[10] = test system: Human immunodeficiency virus 1; assay: Antiviral activity against Human immunodeficiency virus 1 clone 8070_2 harboring integrase G140S, Q148H, K14R, L63I, L101I, T112A, G193E, D229E, D279G mutation transfected in human C8166 cells assessed as decrease in compound susceptibility relative to wild-type

Cc1nnc(C(=O)NC(C)(C)c2nc(C(=O)NCc3ccc(F)cc3)c(O)c(=O)n2C)o1 [RALTEGRAVIR]
fold change (FC) [1]: 116
fold change (FC) [2]: 94
fold change (FC) [3]: >200
fold change (FC) [4]: 96
fold change (FC) [5]: 0.4
fold change (FC) [6]: >200
fold change (FC) [7]: 48
fold change (FC) [8]: 1.15
fold change (FC) [9]: 1.06
fold change (FC) [10]: >200
